Experimental data from paper PMC9926489, “Chemical Optimization of Selective Pseudomonas aeruginosa LasB Elastase Inhibitors and Their Impact on LasB-Mediated Activation of IL-1β in Cellular and Animal Infection Models” (ACS Infectious Diseases, 2023).

Legend:
LasB S460T = target: T1, LasB S460T (Pseudomonas aeruginosa, UniProt P14756, S460T); assay: LasB variant inhibition, culture supernatant: S460T; type: biochemical, P. aeruginosa
T1 construct: Most changes were identified in the mature peptide, however some occurred in the propeptide domain; endogenous in cells; host or cells: P. aeruginosa clinical CF isolate, culture supernatant
T1 sequence (P14756 198-498 S460T): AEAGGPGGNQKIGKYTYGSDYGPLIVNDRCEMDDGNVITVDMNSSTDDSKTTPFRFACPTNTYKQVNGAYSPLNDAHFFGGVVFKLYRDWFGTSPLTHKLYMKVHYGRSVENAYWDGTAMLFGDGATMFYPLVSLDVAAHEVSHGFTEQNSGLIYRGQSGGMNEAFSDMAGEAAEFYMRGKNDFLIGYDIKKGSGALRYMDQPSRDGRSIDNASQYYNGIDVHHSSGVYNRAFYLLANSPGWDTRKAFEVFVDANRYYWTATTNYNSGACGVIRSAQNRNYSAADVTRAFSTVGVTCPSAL
From the text: (§1) Compounds 12 and 16 were discovered as a result of optimizing potency against the LasB protein expressed from the wild-type (WT) reference strain P. aeruginosa PAO1. To understand the relative prevalence of the WT LasB protein versus other variants in clinical respiratory P. aeruginosa strains, the full-length lasB gene was amplified by PCR from 255 clinical isolates (obtained from CF sputum samples). […] Most changes were identified in the mature peptide, however some occurred in the propeptide domain, which could affect LasB processing (marked in italics in Table 4).
(§2) LasB inhibition assays were performed using purified LasB enzyme (1 ng/well) for compound screening or using culture supernatants (prepared as described in the ECR assay) for testing LasB variants. Hydrolysis of the fluorogenic peptide substrate 2-aminobenzoyl-Ala-Gly-Leu-Ala-4-nitrobenzylamide (Abz-AGLA-Nba; Peptide International) in 50 mM Tris-HCl (pH 7.4), supplemented with 2.5 mM CaCl2 was followed using an Envision microplate reader (PerkinElmer) at 315 nm excitation and 430 nm emission. […] IC50 values were determined from Hill plots using Dotmatics Studies ELN software. For the mechanism of inhibition studies, hydrolysis rates were measured in the presence of variable concentrations of substrate and inhibitor, and the inhibition constant (Ki) was determined using Dixon plot analysis.[31]

LasB WT (PAO1 reference) = target: T2, LasB WT (PAO1 reference) (Pseudomonas aeruginosa, UniProt P14756); assay: LasB variant inhibition, Abz-AGLA-Nba assay with culture supernatant: WT; type: biochemical, P. aeruginosa
T2 construct: endogenous in cells; host or cells: P. aeruginosa strains of WT lasB genotype, culture supernatant
T2 sequence (P14756 198-498): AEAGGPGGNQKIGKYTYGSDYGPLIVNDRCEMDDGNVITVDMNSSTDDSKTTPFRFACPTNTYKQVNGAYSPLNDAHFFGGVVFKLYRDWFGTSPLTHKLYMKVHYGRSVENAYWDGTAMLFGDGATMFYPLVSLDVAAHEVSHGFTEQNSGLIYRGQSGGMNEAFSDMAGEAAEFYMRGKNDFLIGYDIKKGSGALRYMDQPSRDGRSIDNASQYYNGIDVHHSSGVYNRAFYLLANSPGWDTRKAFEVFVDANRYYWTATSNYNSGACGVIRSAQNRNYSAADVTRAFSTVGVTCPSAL
From the text: as §1, §2

MMP-1 = target: T3, MMP-1 (Homo sapiens, UniProt P03956); assay: MMP-1 selectivity assay; type: biochemical; conditions: human MMP-1
T3 sequence (P03956 100-469): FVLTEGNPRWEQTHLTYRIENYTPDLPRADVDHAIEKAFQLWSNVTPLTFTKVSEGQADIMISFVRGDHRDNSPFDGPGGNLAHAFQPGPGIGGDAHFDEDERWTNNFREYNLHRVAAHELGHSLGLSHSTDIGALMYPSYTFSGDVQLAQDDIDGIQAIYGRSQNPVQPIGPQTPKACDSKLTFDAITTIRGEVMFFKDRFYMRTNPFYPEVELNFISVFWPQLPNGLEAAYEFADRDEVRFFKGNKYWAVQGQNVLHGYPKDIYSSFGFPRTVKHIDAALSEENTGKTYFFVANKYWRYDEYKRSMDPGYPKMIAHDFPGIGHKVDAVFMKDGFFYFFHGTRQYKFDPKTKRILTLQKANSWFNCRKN
Procedure: Selectivity of compound inhibition was evaluated against other proteases at concentrations between 0.4 and 200 μM. Activity against rabbit angiotensin-converting enzyme (ACE, Sigma) was assessed using 10 μM fluorogenic substrate Abz-Phe-Arg-Lys(Dnp)-P (Enzo Life Sciences) in 100 mM Tris-HCl pH 7, 50 mM NaCl, 10 μM Zn SO4. Activity against human matrix metalloproteases (MMP)-2 and MMP-9 was assessed in 50 mM HEPES pH 7.5, 10 mM CaCl2, 0.01% Triton X-100 using 4 μM fluorogenic substrate Mca-Pro-Leu-Gly-Leu-Dpa-Ala-Arg-NH2 (Enzo Life Sciences). Activity against MMP-1 and MMP-13 was assessed in 25 mM HEPES pH 7.5, 100 mM NaCl, 100 mM CaCl2, 0.0005% Brij using 7.5 μM fluorogenic substrate Mca-Lys-Pro-Leu-Gly-Leu-Dpa-Ala-Arg-NH2 (Sigma) for MMP-1 and 1.25 μM fluorogenic substrate Mca-Pro-Cha-Gly-Nva-His-Ala-Dpa-NH2 (Millipore) for MMP-13. Activity against human neutrophil elastase (HNE, Enzo Life Sciences) was assessed in 100 mM HEPES pH 7.5, 500 mM NaCl, 0.01% of Triton X-100 using 100 μM fluorogenic substrate MeOSuc-AAPV-AMC (Enzo Life Sciences).

[1] = Cytotoxicity screening (MTS), BSMC; type: cell-based; conditions: human, bronchial smooth muscle cells (BSMC)
Procedure: Bronchial smooth muscle cells (BSMC, Lonza CC-2576), small airway epithelial cells (SAEC, Lonza CC-2547), or HepG2 cells (ATCC HB-8065) were seeded in 96-well plates at a density of 25,000 per well. Culture of these cells throughout the protocol utilized incubation at 37 °C, 5% CO2 in a humidified atmosphere, with BSMC and SAEC cells cultured in cell-specific media (Lonza) and HepG2 cells cultured in RPMI 1640 medium containing Glutamax (Gibco) and 10% fetal bovine serum. Plates containing BSMC cells were collagen coated to assist with cell adhesion. Following an overnight settling period, media was replaced with fresh media, with, or without, compound. Compound concentrations tested were 1, 3, 10, 30, and 100 μM, in duplicate. The cells were incubated with compound for 24 h. Control (1% DMSO) and positive standards terfenadine- and salmeterol-treated groups were included for both cell lines. […] The reaction was stopped with 12.5 μL of 10% SDS, plates briefly shaken, and absorbance (490 nm) read using a Spectramax M5e plate reader (Molecular Devices). Percentages of viable cells were calculated as: (test sample Abs 490 nM-mean blank Abs 490 nm)/(mean control Abs 490 nM-mean blank Abs 490 nm) × 100.

Row | SMILES | IC50 (LasB S460T) | IC50 (LasB WT (PAO1 reference)) | IC50 (MMP-1) | IC50 at 24 h [1]
1 | COc1cc2sc(CNC(=O)C3(CC(=O)O)Cc4ccccc4C3)nc2cc1OCCC[N+](C)(C)C [Compound 12] | 211 nM | 222 nM | > 100000 nM | > 100000 nM
2 | COc1cc2sc(CNC(=O)C3(CC(=O)O)Cc4cc(F)c(F)cc4C3)nc2cc1OCCC[N+](C)(CCO)CCO [Compound 16] | 201 nM | 177 nM | > 100000 nM | > 100000 nM
